# Reference: ChEMBL document CHEMBL4819077, “Design, synthesis, and biological evaluation of diosgenin-indole derivatives as dual-functional agents for the treatment of Alzheimer's disease” (Eur J Med Chem, 2021)
# Active and inactive are the calls of the source. The calls are words filed in the database; no cut-off is given here.
# How the values were obtained:
# [1] = system: SH-SY5Y; experiment: Neuroprotection against Abeta-induced oxidative stress in human SH-SY5Y cells assessed as cell protection at 1 mM incubated for 2 hr before Abeta(1-42) challenge and measured after 24 hrs by MTT assay; format: functional; conditions: time 26 hrs
# [2] = system: SH-SY5Y; experiment: Neuroprotection against H202-induced oxidative stress in human SH-SY5Y cells assessed as cell protection at 1 mM preincubated for 2 hr before H202 challenge and measured after 24 hrs by MTT assay; format: functional; conditions: time 26 hrs
# [3] = system: SH-SY5Y; experiment: Neuroprotection against 6-OHDA-induced oxidative stress in human SH-SY5Y cells assessed as cell protection at 1 mM preincubated for 2 hr before 6-OHDA challenge and measured after 24 hrs by MTT assay; format: functional; conditions: time 26 hrs
# [4] = system: SH-SY5Y; experiment: Neuroprotection against H202-induced cytotoxicity in human SH-SY5Y cells assessed as increase in cell viability at 100 uM incubated for 2 hr before H202 challenge and measured after 24 hrs by MTT assay; format: functional, cell-based; conditions: time 26.0 hrs
# [5] = Acute toxicity in ICR mouse assessed as abnormalities in liver at 500 mg/kg, po administered […] 14 days by HE staining based assay; format: organism-based; conditions: in vivo, 336 h, time 14 day
# [6] = system: SH-SY5Y; experiment: Neuroprotection against H202-induced oxidative stress in human SH-SY5Y cells assessed as cell protection at 10 uM preincubated for 2 hr before H202 challenge and measured after 24 hrs by MTT assay; format: functional
# [7] = system: Mus musculus; experiment: Neuroprotection against icv infused amyloid beta (1 to 42)-induced ICR mouse model of Alzheimer's disease assessed as rescue of decrease neuronal cells in hippocampal at to 4 to 20 mg/kg, po administered daily for 7 days by HE staining; format: functional, organism-based; conditions: dose 4-20 mg/kg, time 7.0 day
# [8] = system: SH-SY5Y; experiment: Neuroprotection against H202-induced human SH-SY5Y cell damage assessed as decrease in ROS accumulation at 50 uM incubated for 2 hr before H202 challenge and measured after 24 hrs by DCFDA staining based fluorescence microscopy; format: functional; conditions: time 26.0 hrs
# [9] = system: SH-SY5Y; experiment: Neuroprotection against 6-OHDA-induced oxidative stress in human SH-SY5Y cells assessed as cell protection at 10 uM preincubated for 2 hr before 6-OHDA challenge and measured after 24 hrs by MTT assay; format: functional; conditions: time 26 hrs
# [10] = Acute toxicity in ICR mouse assessed as abnormal behaviors at 500 mg/kg, po administered as single dose measured after 14 days; format: organism-based; conditions: in vivo, 336 h, time 14 day
# [11] = system: SH-SY5Y; experiment: Cytotoxicity against human SH-SY5Y cells assessed as reduction in cell viability measured after 24 hrs by MTT assay; format: cell-based
# [12] = system: SH-SY5Y; experiment: Neuroprotection against H202-induced human SH-SY5Y cell damage assessed as decrease in ROS accumulation at 10 uM incubated for 2 hr before H202 challenge and measured after 24 hrs by DCFDA staining based fluorescence microscopy; format: functional; conditions: time 26.0 hrs
# [13] = Acute toxicity in ICR mouse assessed as abnormalities in kidney at 500 mg/kg, po administered […] 14 days by HE staining based assay; format: organism-based; conditions: in vivo, 336 h, time 14 day
# [14] = system: SH-SY5Y; experiment: Neuroprotection against 6-OHDA-induced cytotoxicity in human SH-SY5Y cells assessed as increase in cell viability at 100 uM incubated for 2 hr before 6-OHDA challenge and measured after 24 hrs by MTT assay; format: functional, cell-based; conditions: time 26.0 hrs
# [15] = system: SH-SY5Y; experiment: Neuroprotection against Abeta-induced cytotoxicity in human SH-SY5Y cells assessed as increase in cell viability upto 50 uM incubated for 2 hr before Abeta(1-42) challenge and measured after 24 hrs by MTT assay; format: functional, cell-based; conditions: dose microM <=50, time 2.0 hrs
# [16] = Acute toxicity in ICR mouse assessed as body weight loss at 500 mg/kg, po administered as single dose measured after 14 days; format: organism-based; conditions: in vivo, 336 h, time 14 day
# [17] = system: SH-SY5Y; experiment: Neuroprotection against H202-induced cytotoxicity in human SH-SY5Y cells assessed as increase in cell viability upto 50 uM incubated for 2 hr before H202 challenge and measured after 24 hrs by MTT assay; format: functional, cell-based; conditions: dose microM <=50, time 2.0 hrs
# [18] = Acute toxicity in ICR mouse assessed as abnormalities in lung at 500 mg/kg, po administered […] 14 days by HE staining based assay; format: organism-based; conditions: in vivo, 336 h, time 14 day
# [19] = system: SH-SY5Y; experiment: Neuroprotection against Abeta-induced cytotoxicity in human SH-SY5Y cells assessed as increase in cell viability at 100 uM incubated for 2 hr before Abeta(1-42) challenge and measured after 24 hrs by MTT assay; format: functional, cell-based
# [20] = Acute toxicity in ICR mouse assessed as mortality at 500 mg/kg, po administered as single dose measured after 14 days; format: organism-based; conditions: in vivo, 336 h, time 14 day
# [21] = Acute toxicity in ICR mouse assessed as abnormalities in spleen at 500 mg/kg, po administered […] 14 days by HE staining based assay; format: organism-based; conditions: in vivo, 336 h, time 14 day
# [22] = system: Mus musculus; experiment: Neuroprotection against icv infused amyloid beta (1 to 42)-induced ICR mouse model of Alzheimer's disease assessed as rescue of pyknotic nucleus in hippocampal at to 4 to 20 mg/kg, po administered daily for 7 days by HE staining; format: functional, organism-based; conditions: dose 4-20 mg/kg, time 7.0 day
# [23] = Acute toxicity in ICR mouse assessed as abnormalities in heart at 500 mg/kg, po administered […] 14 days by HE staining based assay; format: organism-based; conditions: in vivo, 336 h, time 14 day
# [24] = system: SH-SY5Y; experiment: Neuroprotection against 6-OHDA-induced cytotoxicity in human SH-SY5Y cells assessed as increase in cell viability upto 50 uM incubated for 2 hr before 6-OHDA challenge and measured after 24 hrs by MTT assay; format: functional, cell-based; conditions: dose microM <=50, time 2.0 hrs
# [25] = system: Mus musculus; experiment: Improvement in learning and spatial memory in icv infused amyloid beta (1 to 42)-induced ICR mouse model of Alzheimer's disease assessed as improved target quadrant exploration time at 4 to 20 mg/kg, po administered daily for 7 days starting from 7 days post surgery by Morris water maze test; format: functional, organism-based; conditions: dose 4-20 mg/kg, time 7.0 day
# [26] = system: SH-SY5Y; experiment: Neuroprotection against Abeta-induced oxidative stress in human SH-SY5Y cells assessed as cell protection at 10 uM incubated for 2 hr before Abeta(1-42) challenge and measured after 24 hrs by MTT assay; format: functional; conditions: time 26 hrs
smiles,measurement,setting,value
CC(=O)N[C@@H](CS)C(=O)O [ACETYLCYSTEINE],Activity,[1],67.6%
same,Activity,[2],84.73%
same,Activity,[3],83.59%
COc1ccc2[nH]cc(CCNC(=O)Oc3ccc4c(c3)CC[C@@H]3[C@@H]4CC[C@]4(C)[C@@H]5[C@H](C[C@@H]34)O[C@]3(CC[C@@H](C)CO3)[C@H]5C)c2c1,Activity,[4],inactive
same,Activity,[5],Non-Toxic
same,Activity,[6],52.9%
same,Activity,[7],Active
same,Activity,[8],inactive
same,Activity,[9],38.4%
same,Activity,[10],Non-Toxic
same,Activity,[11],Non-Toxic
same,Activity,[12],Active
same,Activity,[13],Non-Toxic
same,Activity,[14],inactive
same,Activity,[15],Active
same,Activity,[16],Non-Toxic
same,Activity,[17],Active
same,Activity,[18],Non-Toxic
same,Activity,[19],inactive
same,Activity,[20],Non-Toxic
same,Activity,[21],Non-Toxic
same,Activity,[22],Active
same,Activity,[23],Non-Toxic
same,Activity,[24],Active
same,Activity,[25],Active
same,Activity,[26],54.4%
